Experimental data from patent US7498329B2, “Salt form of dopamine agonist” (Pfizer Inc., priority 2005, dated 2009).

Experiments:
dopamine D3 receptor [1] = target: T1, dopamine D3 receptor (Homo sapiens, UniProt P35462); experiment: Functional activity at the dopamine D3 receptor (methods of WO 2004/052372); format: cell-based
Method: Activity at the dopamine D3 receptor may be determined using the methods described in WO 2004/052372, which is incorporated herein by reference. […] Selectivity is calculated as the D2 EC50 value divided by the D3 EC50 value.

[2] = Hydrate kinetic stability at 0% RH (isothermal thermogravimetric analysis); format: physicochemical
Method: Isothermal gravimetric analysis of 5-[(2R,5S)-5-methyl-4-propylmorpholin-2-yl]pyridin-2-amine di-S-camsylate monohydrate at 40, 45, 80 and 85° C. Material was held at a selected temperature with a 0% RH flow of nitrogen. 5-[(2R,5S)-5-methyl-4-propylmorpholin-2-yl]pyridin-2-amine di S-camsylate salt dehydrates at 85° C., 0% RH. Many hydrates would be lost at 30° C./0% RH.
ThermoGravimetric Analysis (TGA): Manufactured by TA instruments, model 2950. Approximately 8 mg of the sample was held at analysis temperature in an open pan with 0% RH nitrogen flow for a minimum of 30 min. Results are representative of the kinetic stability of the hydrate over the period of time the sample was exposed.

[3] = Water sorption / hygroscopicity (Dynamic Vapour Sorption); format: physicochemical
Method: Water sorption of 5-[(2R,5S)-5-methyl-4-propylmorpholin-2-yl]pyridin-2-amine di-S-camsylate monohydrate) at 30° C. Sorption at 90% RH is 0.316%(w/w) of dry weight. This value relates to non-bound water and is in addition to that involved in the crystal lattice.
Dynamic Vapour Sorption (DVS): Automated Sorption Analyser Model DVS-1. Manufactured by Surface Measurements Systems Ltd. UK. Solid (10-20 mg) is exposed to controlled relative humidity (% RH) environment and the weight change recorded over time. The humidity was stepped from 0 to 90 to 0% RH in 15% RH intervals. A rate of sorption of 0.0005%/min needs to be achieved at each humidity before exposure to the next humidity in the method. When a sample is deliquescent equilibrium sorption is not always achieved.

[4] = Hydrate stability under reduced partial pressure (vacuum drying conditions); format: physicochemical; conditions: reduced partial pressure at 40° C.
From the text: Typically a pharmaceutical hydrate would be expected to dehydrate within a few hours of exposure to 0% RH. […] This is a much higher temperature than would normally be expected for a hydrated salt. Such kinetic stability is desirable for allowing the compound to be successfully milled prior to formulation. • Many hydrates are not stable to the harsh vacuum drying conditions required in the isolation of a pharmaceutical drug product. However, 5-[(2R,5S)-5-methyl-4-propylmorpholin-2-yl]pyridin-2-amine di-S-camsylate monohydrate would be stable in such a process as, upon exposure to reduced partial pressure at 40° C., the hydrate remains down to 10 mbar.

dopamine D3 receptor [5] = target: T1, dopamine D3 receptor; conditions: according to WO2004/052372; cited from earlier work

T1 sequence (P35462 whole entry, species assumed): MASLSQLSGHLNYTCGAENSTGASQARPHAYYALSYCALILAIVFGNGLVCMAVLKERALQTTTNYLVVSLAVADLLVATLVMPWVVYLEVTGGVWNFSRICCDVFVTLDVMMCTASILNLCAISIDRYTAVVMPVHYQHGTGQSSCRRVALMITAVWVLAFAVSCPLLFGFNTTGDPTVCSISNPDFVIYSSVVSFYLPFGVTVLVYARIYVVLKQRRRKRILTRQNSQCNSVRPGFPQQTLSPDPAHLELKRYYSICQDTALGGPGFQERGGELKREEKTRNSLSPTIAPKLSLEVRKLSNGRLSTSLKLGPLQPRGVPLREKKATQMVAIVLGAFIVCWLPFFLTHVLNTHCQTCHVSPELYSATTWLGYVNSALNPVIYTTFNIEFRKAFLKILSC

| SMILES | EC50 (dopamine D3 receptor [1]) [nM] | selectivity for D3 over D2 (dopamine D3 receptor [1]; D2 EC50 value divided by the D3 EC50 value) [fold] | dehydration of the hydrate ([2]; after 3.5 hours, 0% relative humidity (RH) at 30° C.) | temperature at which the dehydration event was observed ([2]; heating in a flow of 0% RH (nitrogen)) [°C] | deliquescence [3] | hygroscopicity [3] | water sorption ([3]; 90% RH, 30° C., non-bound water) | pressure down to which the hydrate remains [4] [mbar] | D3 agonist activity (in words) (dopamine D3 receptor [5]) |
| --- | --- | --- | --- | --- | --- | --- | --- | --- | --- |
| CCCN1C[C@@H](c2ccc(N)nc2)OC[C@@H]1C [5-[(2R,5S)-5-methyl-4-propylmorpholin-2-yl]pyridine-2-amine, di((1S)-10-camphorsulfonate)monohydrate] | 21 | 476 | does not dehydrate | 85 | not deliquescent | non-hygroscopic | 0.316 %(w/w) of dry weight | 10 |  |
| CCCN1C[C@@H](c2ccc(N)nc2)OC[C@@H]1C (single isomer, unassigned) |  |  |  |  | deliquescent |  |  |  | selective D3 agonist |
